Assay results taken from US20240059691A1 (KALVISTA PHARMACEUTICALS LIMITED, priority 2020, published 2024).

Assays:
Assay type in all cases: biochemical
KLK1 = KLK1 (Homo sapiens (Human), UniProt P06870); assay: Determination of related protease inhibition: KLK1 (fluorogenic substrate at Km); settings: 25° C.
Method: (§1) Determination of Related Protease Inhibition
(§2) In vitro inhibition of related proteases was determined using an ([…] assay based on standard literature methods (see e.g. Shori et al., Biochem. Pharmacol., 1992, 43, 1209; Bouckaert et al., European Journal of Medicinal Chemistry 110 (2016) 181). Human serine protease enzymes Plasma Kallikrein, KLK1, FXa, Plasmin, Thrombin and Trypsin were assayed for enzymatic activity using an appropriate fluorogenic substrate at Km concentration, FXIa at fixed substrate concentration of 100 μM, and various concentrations of the test compound. Protease activity was measured by monitoring the accumulation of liberated fluorescence from the substrate over […]. The linear rate of fluorescence increase per minute was expressed as percentage (%) activity. IC50 values were calculated as the concentration of inhibitor giving 50% inhibition of the uninhibited enzyme activity (100%).

FXa = FXa (Homo sapiens (Human), UniProt P00742); assay: Determination of related protease inhibition: FXa (fluorogenic substrate at Km); settings: 25° C.
Chain of FXa (P00742 235-488): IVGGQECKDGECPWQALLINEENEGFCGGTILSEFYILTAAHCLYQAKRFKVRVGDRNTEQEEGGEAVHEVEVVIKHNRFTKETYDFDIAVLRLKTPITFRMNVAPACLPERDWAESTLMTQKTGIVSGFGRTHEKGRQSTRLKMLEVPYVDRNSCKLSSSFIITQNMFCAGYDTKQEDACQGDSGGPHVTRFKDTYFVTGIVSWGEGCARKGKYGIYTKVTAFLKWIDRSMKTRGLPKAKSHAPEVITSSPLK
Chain of FXa (P00742 41-179 partner): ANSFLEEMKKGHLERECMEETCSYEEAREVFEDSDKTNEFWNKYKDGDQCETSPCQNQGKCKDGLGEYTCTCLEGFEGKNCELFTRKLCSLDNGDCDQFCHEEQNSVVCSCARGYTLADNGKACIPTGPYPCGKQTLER
Method: as §1, §2

Human Factor XIIa = Human Factor XIIa (Homo sapiens (Human), UniProt P00748); assay: Determination of FXIIa inhibition (fluorogenic substrate H-DPro-Phe-Arg-AFC, IC50 assay); settings: substrate H-DPro-Phe-Arg-AFC at Km, 25° C.; class scale A-G
Chain of Human Factor XIIa (P00748 373-615): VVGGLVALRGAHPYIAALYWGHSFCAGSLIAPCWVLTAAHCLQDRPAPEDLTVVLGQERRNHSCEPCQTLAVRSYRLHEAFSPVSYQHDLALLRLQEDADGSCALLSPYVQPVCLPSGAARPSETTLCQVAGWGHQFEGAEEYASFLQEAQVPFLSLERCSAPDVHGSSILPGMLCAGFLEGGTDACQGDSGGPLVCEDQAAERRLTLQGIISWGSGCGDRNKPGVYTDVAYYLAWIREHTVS
Summary of the method: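 IC50 derived from % remaining activity, taken as the linear fluorescence rate over a 5 min read at 25° C. Substrate H-DPro-Phe-Arg-AFC was used at its Km (Michaelis-Menten) with human FXIIa and serial compound dilutions, 25° C.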

Chain of KLK1 (P06870 25-262): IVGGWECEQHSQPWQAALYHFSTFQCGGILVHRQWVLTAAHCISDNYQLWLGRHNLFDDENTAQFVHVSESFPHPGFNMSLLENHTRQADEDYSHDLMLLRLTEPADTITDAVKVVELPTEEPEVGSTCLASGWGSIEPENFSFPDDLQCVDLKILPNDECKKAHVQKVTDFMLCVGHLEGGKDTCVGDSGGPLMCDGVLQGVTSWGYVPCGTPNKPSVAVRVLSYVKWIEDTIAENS

| Compound | IC50 (KLK1) | IC50 (FXa) | IC50 (Human Factor XIIa) |
| --- | --- | --- | --- |
| CC(C)Oc1cc(NCc2ccc(N3CCn4c(nnc4C(F)(F)F)C3)nc2)ccn1 [Example 1290, 2-isopropoxy-N-((6-(3-(trifluoromethyl)-5,6-dihydro-[1,2,4]triazolo[4,3-a]pyrazin-7(8H)-yl)pyridin-3-yl)methyl)pyridin-4-amine] | > 40 µM | > 40 µM |  |
| FC(F)(F)c1nnc2n1CCN(c1ccc(CNc3cnc4[nH]cc(Cl)c4c3)cn1)C2 [Example 1289, 3-chloro-N-((6-(3-(trifluoromethyl)-5,6-dihydro-[1,2,4]triazolo[4,3-a]pyrazin-7(8H)-yl)pyridin-3-yl)methyl)-1H-pyrrolo[2,3-b]pyridin-5-amine] | > 40 µM | > 40 µM |  |
| Cc1cc(N2CCn3c(nnc3C(F)(F)F)C2C)ncc1CNc1cccc2c(N)nccc12 (racemic) [Example 1303, N5-((4-Methyl-6-(8-methyl-3-(trifluoromethyl)-5,6-dihydro-[1,2,4]triazolo[4,3-a]pyrazin-7(8H)-yl)pyridin-3-yl)methyl)isoquinoline-1,5-diamine] | > 4 µM |  | 0.01 to 0.1 µM |
| Cc1cc(NCc2ccc(N3CCn4c(nnc4C(F)(F)F)C3)nc2)c2cc(Cl)[nH]c2n1 [Example 1293, 2-chloro-6-methyl-N-((6-(3-(trifluoromethyl)-5,6-dihydro-[1,2,4]triazolo[4,3-a]pyrazin-7(8H)-yl)pyridin-3-yl)methyl)-1H-pyrrolo[2,3-b]pyridin-4-amine] | > 40 µM | > 40 µM |  |
| Nc1nccc2c(NCc3cnc(N4CCn5c(nnc5C(F)(F)F)C4)cc3C3CC3)cccc12 [Example 1307, N5-((4-cyclopropyl-6-(3-(trifluoromethyl)-5,6-dihydro-[1,2,4]triazolo[4,3-a]pyrazin-7(8H)-yl)pyridin-3-yl)methyl)isoquinoline-1,5-diamine] | 3 to 10 µM |  | 0.3 to 1 µM |

Next, values leading:

| IC50 (KLK1) | IC50 (FXa) | IC50 (Human Factor XIIa) | Compound |
| --- | --- | --- | --- |
| > 4 µM |  | 0.01 to 0.1 µM | CCc1cc(N2CCn3c(nnc3C(F)(F)F)C2)ncc1CNc1cccc2c(N)nccc12 [Example 1309, N5-((4-ethyl-6-(3-(trifluoromethyl)-5,6-dihydro-[1,2,4]triazolo[4,3-a]pyrazin-7(8H)-yl)pyridin-3-yl)methyl)isoquinoline-1,5-diamine] |
| 3 to 10 µM |  | 0.3 to 1 µM | Nc1nccc2c(NCc3cnc(N4CCn5c(nnc5C(F)(F)F)C4)cn3)cccc12 [Example 9002, N5-((5-(3-(trifluoromethyl)-5,6-dihydro-[1,2,4]triazolo[4,3-a]pyrazin-7(8H)-yl)pyrazin-2-yl)methyl)isoquinoline-1,5-diamine] |
| 3 to 10 µM |  | 1 to 3 µM | CC(C)c1cc(N2CCn3c(nnc3C(F)(F)F)C2)ncc1CNc1cccc2c(N)nccc12 [Example 1308, N5-((4-isopropyl-6-(3-(trifluoromethyl)-5,6-dihydro-[1,2,4]triazolo[4,3-a]pyrazin-7(8H)-yl)pyridin-3-yl)methyl)isoquinoline-1,5-diamine] |
| 3 to 10 µM |  | 1 to 3 µM | Nc1nccc2c(NCc3cnc(N4CCn5c(nnc5C(F)(F)F)C4)nc3)cccc12 [Example 9003, N5-((2-(3-(trifluoromethyl)-5,6-dihydro-[1,2,4]triazolo[4,3-a]pyrazin-7(8H)-yl)pyrimidin-5-yl)methyl)isoquinoline-1,5-diamine] |
| > 4 µM |  | 0.01 to 0.1 µM | Cc1cc(N2CCn3c(nnc3C(F)(F)F)C2)cnc1CNc1cccc2c(N)nccc12 [Example 9005, N5-((3-Methyl-5-(3-(trifluoromethyl)-5,6-dihydro-[1,2,4]triazolo[4,3-a]pyrazin-7(8H)-yl)pyridin-2-yl)methyl)isoquinoline-1,5-diamine] |
| > 4 µM |  | 0.1 to 0.3 µM | Cc1cc(N2CCn3c(nnc3C(F)(F)F)C2)ncc1CNc1ccnc2[nH]c(Cl)cc12 [Example 1313, 2-Chloro-N-((4-methyl-6-(3-(trifluoromethyl)-5,6-dihydro-[1,2,4]triazolo[4,3-a]pyrazin-7(8H)-yl)pyridin-3-yl)methyl)-1H-pyrrolo[2,3-b]pyridin-4-amine] |
